In patent US4220644A, “7-Acylamino-3-(substituted tetrazolyl thiomethyl) cephalosporins” (SmithKline Corporation, priority 1976, dated 1980):
≈ marks a conversion by molar mass, not a printed value. Like-named read-outs stand apart in the source and are kept apart here.

How the values were obtained:
Salmonella ATCC 12176 = test: MIC in vitro (Table 1), Salmonella ATCC 12176; format: cell-based
Excerpt: (§1) The compounds of Formula I have antibacterial activity against both Gram-positive and Gram-negative organisms. […] Compound names corresponding to numbers are given in the experimental section. For comparative purposes, data for cephamandole, which is 7-mandelamido-3-(1-methyltetrazol-5-ylthiomethyl)-3-cephem-4-carboxylic acid, is also given in Tables 1 and 2.

Kleb. pneumo. SK 4200 = test: MIC in vitro (Table 1), Kleb. pneumo. SK 4200; format: cell-based
Excerpt: (§2) Compound names corresponding to numbers are given in the experimental section. For comparative purposes, data for cephamandole, which is 7-mandelamido-3-(1-methyltetrazol-5-ylthiomethyl)-3-cephem-4-carboxylic acid, is also given in Tables 1 and 2.

Kleb. pneumo. SK 1200 = test: MIC in vitro (Table 1), Kleb. pneumo. SK 1200; format: cell-based
Excerpt: as §2

Pseudo. sp. HH 63 = test: MIC in vitro (Table 1), Pseudo. sp. HH 63; format: cell-based; details: in vitro, Pseudo. sp. HH 63; read-out: MIC
Excerpt: as §1

Entero. cloacae HH 31254 = test: MIC in vitro (Table 1), Entero. cloacae HH 31254; format: cell-based; details: Enterobacter cloacae
Excerpt: as §2

S. villaluz = test: MIC in vitro (Table 1), S. villaluz; format: cell-based; details: read-out: MIC
Excerpt: as §1

Serra. Marc. ATCC 13880 = test: MIC in vitro (Table 1), Serra. Marc. ATCC 13880; format: cell-based
Excerpt: as §2

S. aureus SK 23390 = test: MIC in vitro (Table 1), S. aureus SK 23390; format: cell-based
Excerpt: as §2

Proteus morgani 179 = test: MIC in vitro (Table 1), Proteus morgani 179; format: cell-based
Excerpt: as §2

Strep. Faecalis HH 34358 = test: MIC in vitro (Table 1), Strep. Faecalis HH 34358; format: cell-based; details: Enterococcus faecalis, in vitro, Strep. Faecalis HH 34358; read-out: MIC
Excerpt: as §2

Shigella HH 117 = test: MIC in vitro (Table 1), Shigella HH 117; format: cell-based
Excerpt: as §1

[1] = system: Entero. aerog. ATCC 13048; test: MIC in vitro (Table 1), Entero. aerog. ATCC 13048; format: cell-based
Excerpt: as §2

E. coli SK 12140 = test: MIC in vitro (Table 1), E. coli SK 12140; format: cell-based; details: Escherichia coli, SK12140, in vitro
Excerpt: as §2

E. coli HH 33779 = test: MIC in vitro (Table 1), E. coli HH 33779; format: cell-based; details: Escherichia coli
Excerpt: as §2

S. aureus HH 127 = test: MIC in vitro (Table 1), S. aureus HH 127; format: cell-based; details: Staphylococcus aureus
Excerpt: as §2

E. coli 12140 = test: In vivo mouse protection (Table 2), E. coli 12140
Excerpt: as §2

Kleb. pneumo. 4200 = test: In vivo mouse protection (Table 2), Kleb. pneumo. 4200
Excerpt: as §2

[2] = Salmonella, ATCC12176, in vitro, read-out: MIC
[3] = in vitro, Kleb. pneumo. SK 4200, read-out: MIC
[4] = Staphylococcus aureus, SK23390, in vitro, S. aureus SK 23390, read-out: MIC
[5] = Shigella, HH117, in vitro, read-out: MIC
[6] = HH33779, in vitro, E. coli HH 33779, read-out: MIC
[7] = Escherichia coli, 12140, po, E. coli 12140, p.o.
[8] = Escherichia coli, 12140, sc, E. coli 12140, s.c.
[9] = HH31254, in vitro, Entero. cloacae HH 31254, read-out: MIC
[10] = in vitro, Serra. Marc. ATCC 13880, read-out: MIC
[11] = in vitro, Entero. aerog. ATCC 13048, read-out: MIC
[12] = HH127, in vitro, S. aureus HH 127, read-out: MIC

| Structure (SMILES) | MIC (Salmonella ATCC 12176; [2]) | MIC (Kleb. pneumo. SK 4200; [3]) | MIC (Kleb. pneumo. SK 1200; read-out: MIC) | MIC (Pseudo. sp. HH 63) | MIC (Entero. cloacae HH 31254; HH31254) | MIC (S. villaluz) | MIC (Proteus morgani 179; read-out: MIC) | MIC (Strep. Faecalis HH 34358) | MIC (Shigella HH 117; [5]) | MIC (E. coli HH 33779; [6]) | ED50 (E. coli 12140; [7]) | ED50 (E. coli 12140; [8]) | ED50 (Kleb. pneumo. 4200; po, Kleb. pneumo. 4200, p.o.) | ED50 (Kleb. pneumo. 4200; sc, Kleb. pneumo. 4200, s.c.) | MIC (Kleb. pneumo. SK 1200) | MIC (Entero. cloacae HH 31254; [9]) | MIC (Serra. Marc. ATCC 13880; [10]) | MIC [1, 11] | MIC (E. coli SK 12140; read-out: MIC) | MIC (S. aureus HH 127; [12]) | further results |
| --- | --- | --- | --- | --- | --- | --- | --- | --- | --- | --- | --- | --- | --- | --- | --- | --- | --- | --- | --- | --- | --- |
| NC(=O)CCCn1nnnc1SCC1=C(C(=O)O)N2C(=O)C(NC(=O)[C@H](O)c3ccccc3)[C@H]2SC1 (stereo partly drawn) [XI, 7-D-Mandelamido-3-[1-(3-carbamoylpropyl)tetrazol-5-ylthiomethyl]-3-cephem-4-carboxylic acid] | 0.8 µg/mL (≈ 1.5 µM) | 0.8 µg/mL (≈ 1.5 µM) | 0.8 µg/mL (≈ 1.5 µM) | > 200 µg/mL | 3.1 µg/mL (≈ 5.81 µM) | 50 µg/mL (≈ 93.7 µM) | 0.8 µg/mL (≈ 1.5 µM) | 50 µg/mL (≈ 93.7 µM) | 0.4 µg/mL (≈ 0.75 µM) | 3.1 µg/mL (≈ 5.81 µM) | > 50 mg/kg | 1.56 mg/kg | 25 mg/kg | 0.37 mg/kg | – | – | – | – | – | – | MIC (Serra. Marc. ATCC 13880): 25 µg/mL (≈ 46.9 µM); MIC (S. aureus SK 23390; [4]): 3.1 µg/mL (≈ 5.81 µM); MIC [1]: 3.1 µg/mL (≈ 5.81 µM); MIC (E. coli SK 12140): 0.4 µg/mL (≈ 0.75 µM); MIC (S. aureus HH 127; HH127): 3.1 µg/mL (≈ 5.81 µM) |
| NC(=O)Cn1nnnc1SCC1=C(C(=O)O)N2C(=O)C(NC(=O)[C@H](O)c3ccccc3)[C@H]2SC1 (stereo partly drawn) [V, 7-D-Mandelamido-3-(1-carbamoylmethyltetrazol-5-ylthiomethyl)-3-cephem-4-carboxylic acid] | 0.8 µg/mL (≈ 1.58 µM) | 1.6 µg/mL (≈ 3.16 µM) | 0.8 µg/mL (≈ 1.58 µM) | > 200 µg/mL | 0.4 µg/mL (≈ 0.791 µM) | 25 µg/mL (≈ 49.5 µM) | 3.1 µg/mL (≈ 6.13 µM) | 25 µg/mL (≈ 49.5 µM) | 0.2 µg/mL (≈ 0.396 µM) | 1.6 µg/mL (≈ 3.16 µM) | 50 mg/kg | 1.56 mg/kg | 21.2 mg/kg | 1.3 mg/kg | 0.4 µg/mL (≈ 0.791 µM) | 0.8 µg/mL (≈ 1.58 µM) | 12.5 µg/mL (≈ 24.7 µM) | 1.6 µg/mL (≈ 3.16 µM) | 0.8 µg/mL (≈ 1.58 µM) | 1.6 µg/mL (≈ 3.16 µM) | MIC (Salmonella ATCC 12176; in vitro): 0.4 µg/mL (≈ 0.791 µM); MIC (S. aureus SK 23390; [4]): 3.1 µg/mL (≈ 6.13 µM); MIC (S. aureus SK 23390; in vitro, S. aureus SK 23390): 1.6 µg/mL (≈ 3.16 µM); MIC (Proteus morgani 179): 1.6 µg/mL (≈ 3.16 µM); MIC (Shigella HH 117; in vitro): 0.4 µg/mL (≈ 0.791 µM) |
| CNC(=O)Cn1nnnc1SCC1=C(C(=O)O)N2C(=O)C(NC(=O)[C@H](O)c3ccccc3)[C@H]2SC1 (stereo partly drawn) [III, 7-D-Mandelamido-3-(1-N-methylcarbamoylmethyltetrazol-5-ylthiomethyl)-3-cephem-4-carboxylic acid] | 0.8 µg/mL (≈ 1.54 µM) | – | – | > 200 µg/mL | 3.1 µg/mL (≈ 5.97 µM) | – | – | 25 µg/mL (≈ 48.1 µM) | 3.1 µg/mL (≈ 5.97 µM) | – | 34 mg/kg | 1.56 mg/kg | > 50 mg/kg | 2.8 mg/kg | 3.1 µg/mL (≈ 5.97 µM) | – | 25 µg/mL (≈ 48.1 µM) | – | – | 1.6 µg/mL (≈ 3.08 µM) | MIC (Kleb. pneumo. SK 4200): 3.1 µg/mL (≈ 5.97 µM); MIC (S. aureus SK 23390; Staphylococcus aureus, SK23390): 3.1 µg/mL (≈ 5.97 µM); MIC (Proteus morgani 179): 3.1 µg/mL (≈ 5.97 µM); MIC [1]: 3.1 µg/mL (≈ 5.97 µM); MIC (E. coli SK 12140): 3.1 µg/mL (≈ 5.97 µM); MIC (E. coli HH 33779; HH33779): 3.1 µg/mL (≈ 5.97 µM) |
| CN(C)C(=O)Cn1nnnc1SCC1=C(C(=O)O)N2C(=O)C(NC(=O)[C@H](O)c3ccccc3)C2SC1 (stereo partly drawn) [IV, 7-D-Mandelamido-3-(1-N,N-dimethylcarbamoylmethyltetrazol-5-ylthiomethyl)-3-cephem-4-carboxylic acid] | 3.1 µg/mL (≈ 5.81 µM) | 3.1 µg/mL (≈ 5.81 µM) | 1.6 µg/mL (≈ 3 µM) | > 200 µg/mL | – | 50 µg/mL (≈ 93.7 µM) | – | 25 µg/mL (≈ 46.9 µM) | 0.8 µg/mL (≈ 1.5 µM) | 6.3 µg/mL (≈ 11.8 µM) | 168 mg/kg | 2.5 mg/kg | 168 mg/kg | 7.5 mg/kg | – | 1.6 µg/mL (≈ 3 µM) | 100 µg/mL (≈ 187 µM) | 6.3 µg/mL (≈ 11.8 µM) | 3.1 µg/mL (≈ 5.81 µM) | 1.6 µg/mL (≈ 3 µM) | MIC (S. aureus SK 23390; Staphylococcus aureus, SK23390): 0.8 µg/mL (≈ 1.5 µM) |
| O=C(O)CCn1nnnc1SCC1=C(C(=O)O)N2C(=O)C(NC(=O)CSC(F)(F)F)[C@H]2SC1 (some centres unmarked) [XV, 7-Trifluoromethylmercaptoacetamido-3-[1-(2-carboxyethyl)tetrazol-5-ylthiomethyl]-3-cephem-4-carboxylic acid] | 0.4 µg/mL (≈ 0.757 µM) | 0.8 µg/mL (≈ 1.51 µM) | – | – | – | 25 µg/mL (≈ 47.3 µM) | > 200 µg/mL | 50 µg/mL (≈ 94.6 µM) | 0.8 µg/mL (≈ 1.51 µM) | 3.1 µg/mL (≈ 5.87 µM) | > 50 mg/kg | 1.56 mg/kg | 46 mg/kg | 1.12 mg/kg | 0.4 µg/mL (≈ 0.757 µM) | 0.8 µg/mL (≈ 1.51 µM) | 200 µg/mL (≈ 378 µM) | 6.3 µg/mL (≈ 11.9 µM) | 0.8 µg/mL (≈ 1.51 µM) | 1.6 µg/mL (≈ 3.03 µM) | MIC (S. aureus SK 23390; Staphylococcus aureus, SK23390): 0.8 µg/mL (≈ 1.51 µM) |
